Assay: gradient 5% acetonitrile 3 min, to 50% in 2 min, to 85% in 15 min, held 3 min, 100 µL/min
Conditions: column: Zorbax Extend-C18 2.1 x 50 mm; eluents: water / acetonitrile, 0.1% formic acid
How it was run: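 Mixtures of ~100 pure standards were chromatographed on a Zorbax Extend-C18 column (2.1 × 50 mm, 1.8 μm) at 100 μL/min using water and acetonitrile, each with 0.1% formic acid. Detection used a quadrupole time-of-flight mass spectrometer in positive and negative ionization mode, and data collection spanned 3 months. Retention time was obtained from adduct peaks picked computationally and each checked manually.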

Compound: CC(C)n1cnc(S(=O)(=O)N2CCC(C(=O)N3CCN(C(=O)c4ccco4)CC3)CC2)c1
- RP-LC retention time: 636 s

Compound: Cn1cc(C(CNC(=O)Nc2ccc3c(c2)OCO3)c2cccnc2)c2ccccc21 (configuration not stated)
- RP-LC retention time: 684 s

Compound: COc1ccc(-c2ccc(=O)n(CCNC(=O)NC3CCCCC3)n2)cc1
- RP-LC retention time: 681 s

Compound: Cc1oc(-c2ccc(Cl)cc2)nc1CN1CCC(C(=O)NCc2ccccn2)CC1
- RP-LC retention time: 584 s

Compound: CC1CCN(S(=O)(=O)c2ccccc2-c2nc(-c3ccccc3)no2)CC1
- RP-LC retention time: 1200 s

Compound: Cc1ccc2c(c1)OCC(=O)N2Cc1nc(-c2ccc(F)cc2)no1
- RP-LC retention time: 970 s

Compound: CC(C)N1CCn2cc(S(=O)(=O)NCc3ccc(F)cc3F)cc2C1=O
- RP-LC retention time: 763 s

Compound: Cc1ccc(CNC(=O)Cc2nnc(-c3ccc4ncccc4c3)o2)cc1C
- RP-LC retention time: 915 s

Compound: COc1ccc(CN2CCC(NC(=O)C3(c4ccccc4)CC3)C2)cn1 (configuration not stated)
- RP-LC retention time: 639 s

Compound: Cc1cccc(NC(=O)N2CCC(c3cc(N)on3)CC2)c1C
- RP-LC retention time: 685 s

Compound: Cc1ccc(CN2CCC3(CC2)CC(C)(O)CCO3)nc1 (configuration not stated)
- RP-LC retention time: 556 s

Compound: Cc1ccc(-c2cnn3c(N4CCN(c5ccccn5)CC4)cc(C)nc23)cc1
- RP-LC retention time: 751 s

Compound: O=C(Cn1nc(C2CC2)c2cnn(-c3ccc(F)cc3)c2c1=O)NCC1CCCO1 (configuration not stated)
- RP-LC retention time: 729 s

Compound: CCc1noc(C2(NC(=O)c3nccc4ccccc34)CCCCC2)n1
- RP-LC retention time: 1060 s

Compound: COc1ccc(-c2cc3n(n2)CCCN(C(=O)NCC2CCCO2)C3)cc1 (configuration not stated)
- RP-LC retention time: 681 s

Compound: COC(=O)c1ccc(CSc2ncnc3c2cnn3-c2ccc(C)cc2C)o1
- RP-LC retention time: 1070 s

Compound: O=C(CCn1nnc2cc(-c3noc(-c4ccc(F)c(F)c4)n3)ccc21)N1CCCC1
- RP-LC retention time: 946 s

Compound: O=C(NC1CC1)[C@@H]1C[C@H](Oc2ccccc2)CN1C(=O)COc1ccc(F)cc1
- RP-LC retention time: 813 s

Compound: Cn1nccc1-c1csc(S(=O)(=O)NC2CCCCC2)c1
- RP-LC retention time: 877 s

Compound: CSc1ccc(-c2nc3ccc(C)cn3c2Nc2ccccc2C)cc1
- RP-LC retention time: 795 s

Compound: CCNC(=O)Nc1ccc2c(c1)CN(C(=O)Nc1ccc3c(c1)OCCO3)CCO2
- RP-LC retention time: 706 s

Compound: COC(=O)c1ccccc1NC(=O)Cn1cccc(-c2nc(-c3ccc(Cl)cc3)no2)c1=O
- RP-LC retention time: 1070 s

Compound: c1ccc(Cn2cnnc2C2CCN(CC3CC3)CC2)cc1
- RP-LC retention time: 566 s

Compound: CCc1ccc(NC(=O)Nc2ccc(NC(=O)N3CCC(C(=O)NC)CC3)cc2)cc1
- RP-LC retention time: 704 s

Compound: CCc1cccc(Nc2c(C(=O)N3CCCCC3C)cnc3nc(C)ccc23)c1 (configuration not stated)
- RP-LC retention time: 677 s

Compound: CCC1CCCCN1c1cc(SCC(=O)Nc2ccc(N(C)C)cc2)ncn1 (configuration not stated)
- RP-LC retention time: 709 s

Compound: CSc1ccc(Cc2nnc(NC(=O)c3cccc(C(F)(F)F)c3)o2)cc1
- RP-LC retention time: 907 s

Compound: O=C(C1CCCN(c2nnc(-n3cccc3)s2)C1)N1CCN(c2ccccc2)CC1 (configuration not stated)
- RP-LC retention time: 931 s

Compound: CCCn1c(=O)c(C)nc2cc(-c3noc(Cc4ccc(F)cc4)n3)ccc21
- RP-LC retention time: 1060 s

Compound: COc1cc(OC)c(NC(=O)N(C)CCc2noc(-c3ccccc3)n2)cc1Cl
- RP-LC retention time: 946 s

Compound: CCN(C(=O)Cn1nc2cc(C)nc(Nc3ccc(C)c(C)c3)n2c1=O)c1ccccc1
- RP-LC retention time: 1230 s

Compound: CC(C)(C)c1cc(N)n(C2CCS(=O)(=O)C2)n1 (configuration not stated)
- RP-LC retention time: 623 s

Compound: Cc1oc(-c2cccc(Cl)c2)nc1Cn1c(=O)n(C(C)C)c(=O)c2ccccc21
- RP-LC retention time: 1360 s

Compound: CCc1nc(-c2csc(S(=O)(=O)N3CCCC(C(=O)Nc4ccccc4CC)C3)c2)no1 (configuration not stated)
- RP-LC retention time: 1060 s

Compound: CN(C)C(=O)Oc1cc(OC(=O)N(C)C)cc(C(O)CNC(C)(C)C)c1 (configuration not stated)
- RP-LC retention time: 688 s

Compound: Cc1ccc(S(=O)(=O)N2c3ccccc3NC3=C(C(=O)CCC3)C2c2ccco2)cc1C (configuration not stated)
- RP-LC retention time: 860 s

Compound: COc1cccc(CC2C(=O)Nc3ccc(Cl)cc32)c1OC (configuration not stated)
- RP-LC retention time: 900 s

Compound: CCOc1ccccc1CNC(=O)C1CCN(c2nc(CC)nc3csc(C)c23)CC1
- RP-LC retention time: 1030 s

Compound: CCOc1ccccc1CNC(=O)C1CCN(S(=O)(=O)c2ccc3c(c2)sc(=O)n3C)CC1
- RP-LC retention time: 878 s

Compound: O=C1c2ccccc2C(=O)N1c1ncn[nH]1
- RP-LC retention time: 667 s

Compound: COc1ccccc1-n1c(SCC(=O)Nc2ncn[nH]2)nc2ccccc2c1=O
- RP-LC retention time: 642 s

Compound: CC1CCN(C(=O)c2cc3c(s2)CCC(C(=O)N2CCN(C)CC2)C3)CC1 (configuration not stated)
- RP-LC retention time: 575 s

Compound: O=C(Nc1ccc(-n2cnnn2)cc1)c1csc(Nc2ccccc2)n1
- RP-LC retention time: 777 s

Compound: CCC1(O)CCOC2(CCN(C(=O)C3CC=CC3)CC2)C1 (configuration not stated)
- RP-LC retention time: 686 s

Compound: Cc1ccc(Cl)cc1N1C(=O)CN(S(C)(=O)=O)CC1(C)C(=O)NC1CCCCCC1 (configuration not stated)
- RP-LC retention time: 942 s

Compound: COc1ccc(-c2csc(Nc3ccc(Br)cn3)n2)cc1
- RP-LC retention time: 1170 s

Compound: COc1cccc(-c2nnc(Cc3nc(-c4ccc5c(c4)OCO5)no3)o2)c1
- RP-LC retention time: 977 s

Compound: COc1ccc(Cl)cc1NC(=O)CSc1ccc(N2CCCC(C(=O)NC3CC3)C2)nn1 (configuration not stated)
- RP-LC retention time: 753 s

Compound: COC(=O)c1sc2ccc(NC(=O)C3CCN(S(=O)(=O)N4CCOCC4)CC3)cc2c1OC
- RP-LC retention time: 853 s

Compound: Cn1c(=O)sc2cc(S(=O)(=O)N3CCC(C(=O)N4CCOCC4)CC3)ccc21
- RP-LC retention time: 663 s

Compound: Cc1ccc(NC(=O)N2CCCC2C(=O)NC2CC2)cc1 (configuration not stated)
- RP-LC retention time: 668 s

Compound: O=C(Cn1c(=O)nc(N2CCCCC2)c2ccccc21)Nc1cc(F)cc(F)c1
- RP-LC retention time: 829 s

Compound: Cc1[nH]c(-c2ccccc2)cc1C(=O)NC1CCCCC1
- RP-LC retention time: 898 s

Compound: CCCCCOc1ccc(Nc2nc(C(=O)OCC)nc3ccccc23)cc1
- RP-LC retention time: 789 s

Compound: COc1cc(NC(=O)N2CCN(c3cc(C)nc(N4CCCCC4)n3)CC2)cc(OC)c1OC
- RP-LC retention time: 669 s

Compound: COc1cccc(COc2coc(C(=O)Nc3nnc(C)s3)cc2=O)c1
- RP-LC retention time: 660 s

Compound: O=C(Nc1ccc(Nc2ccccc2)cc1)Nc1ccccc1Cl
- RP-LC retention time: 1130 s

Compound: COc1ccc(-c2cc3n(n2)CCCN(C(=O)c2cccnc2SC)C3)cc1
- RP-LC retention time: 788 s

Compound: COc1ccc(CC(=O)N2CCC(Nc3ncnc4c3CCC4)C2)cc1 (configuration not stated)
- RP-LC retention time: 595 s

Compound: CCc1nc2c(c(=O)n1CC(=O)NCc1ccccc1F)CN(Cc1ccccc1)CC2
- RP-LC retention time: 649 s

Compound: C(=N\n1cnnc1)/c1ccc2c(c1)CCC2
- RP-LC retention time: 858 s

Compound: COC(=O)c1ccc(NC(=O)N2CC(Oc3cccc(-c4nc(C)no4)c3)C2)cc1
- RP-LC retention time: 883 s

Compound: CCCNC(=O)C1CCCN(c2nc3ccsc3c(=O)n2-c2cccc(OC)c2)C1 (configuration not stated)
- RP-LC retention time: 735 s

Compound: COc1nn(C)cc1C(=O)Nc1nnc(C2CC(=O)N(c3ccccc3)C2)o1 (configuration not stated)
- RP-LC retention time: 610 s

Compound: CCc1ccc(S(=O)(=O)N2CC=C(c3cn(C)c4ncccc34)CC2)cc1
- RP-LC retention time: 1100 s

Compound: CCC(=O)N1CCN(c2nc(C)cc(N3CCOCC3)n2)CC1
- RP-LC retention time: 578 s

Compound: COCc1c(C(=O)O)nnn1-c1cccc(OC)c1
- RP-LC retention time: 668 s

From the METLIN SMRT retention time set (Domingo-Almenara et al. 2019)
